Where two headings read alike, the source gives them in different places.

Assay [1] relates to Madin Darby canine kidney (MDCK) cells. The assay is described as follows: cells. Format: cell-based. As to conditions: Canis lupus familiaris, cytotoxic concentration, positive control drug = ribavirin, read-out: CPE Inhibition test IC50.
For assay [2], the system named is African green monkey kidney (CV-1) cells. The assay is described as follows: cells. The assay is classed as cell-based. The conditions noted are these: Chlorocebus sabaeus, read-out: CPE Inhibition test IC50.
Assay [3] concerns African green monkey kidney (MA-104) cells. The assay is described as follows: cells. Format: cell-based. The conditions noted are these: Chlorocebus sabaeus, MA104, cytotoxic concentration, positive control drug = ribavirin, read-out: CPE Inhibition test IC50.
Assay [4] concerns uninfected cells. The assay is described as follows: Cytotoxicity, microscopic reading of uninfected cells in the CPE inhibition test (rhinovirus host cells, not named). The assay is classed as cell-based. The protocol:
(§1) Cytotoxicity of each test compound is also evaluated as follows. In the initial CPE inhibition tests, two wells of uninfected cells treated with each concentration of test compound are run in parallel with the infected, treated wells. When the CPE is determined microscopically, the toxicity control cells are also examined microscopically for any changes in cell appearance compared to normal uninfected, untreated control cells. Changes, which may manifest as enlargement, granularity, ragged edges, filmy appearance, rounding, detachment from the surface of the well, or other changes, are given a designation of T (100% toxic), PVH (partially toxic-very heavy-80%), PH (partially toxic-heavy-60%), P (partially toxic-40%), PS (partially toxic-slight-20%) or 0 (no toxicity-0%) in accordance with the degree of cytotoxicity observed. […] A neutral red IC50 is also determined based on uptake of neutral red dye by the toxicity control cells.

Assay [5] concerns human lung carcinoma (A549) cells. The assay is described as follows: cells. The assay is classed as cell-based. As to conditions: read-out: Neutral Red Uptake test IC50.
Assay [6] has as its system African green monkey kidney (MA-104) cells. The assay is described as follows: Cytotoxicity, neutral red uptake by toxicity control cells. The assay is classed as cell-based. As to conditions: Chlorocebus sabaeus, MA104, cytotoxic concentration, positive control drug = ribavirin, read-out: Neutral Red Uptake test IC50.
Assay [7] has as its system uninfected cells. The assay is described as follows: Cytotoxicity, neutral red uptake by toxicity control cells (rhinovirus host cells, not named). As to conditions: read-out: Neutral Red Uptake test IC50. The assay is classed as cell-based. The procedure:
as §1

Assay [8] concerns viral immediate early (IE1) or late glycoprotein (gB) mRNA. The experiment in a line: Northern blot of viral mRNA in infected HUVEC. Format: cell-based, CMV. As to conditions: 200 µM A771726, 48 hours. The protocol: Northern blot analysis was employed to determine whether A771726 quantitatively affected transcription of viral immediate early (IE1) or late glycoprotein (gB) mRNA.
HUVEC monolayers in 6-well culture plates were inoculated with CMV strain VHL/E (0.5 PFU/cell) in the presence or absence of 200 µM A771726 and/or 200 µM uridine (6 wells/treatment) as described above, and incubated for 48 hours. […] Total cytoplasmic RNA was isolated from each culture, by 18-hour ultracentrifugation of guanidine isothiocyanate/BME extracts overlayed on cesium chloride cushions. […] 50 ng of full-length IE1 and gB were incubated in a 50 µl PCR reaction including a nucleotide triphosphate mix containing 700 nM α-[^32P]dCTP (Amersham) and either IE1 primers [IE1 sense: 5' […] 3' (SEQ ID NO: 1) and IE1 antisense: 5'[…] 3' (SEQ ID NO: 2)] or gB primers [gB sense: 5 […] 3' (SEQ ID NO: 3) and gB antisense: 5' […] 3' (SEQ ID NO: 4)]. A cDNA probe for GAPDH was radiolabelled using a random priming kit (Decaprime II, Ambion, Inc., Austin TX) as previously described. […] Membranes were hybridized, washed, and bound probe was detected by autoradiography as previously described. Membranes were stripped and reprobed for GAPDH, and scanning densitometry was used to quantitate IE1 and gB band densities, and to normalize these values to those of GAPDH.

For another assay, the system named is CMV strain VHL/E. The experiment in a line: Transmission electron microscopy of virion morphology in CMV-infected HUVEC. Format: cell-based. The conditions noted are these: 200 µM A771726, 4-7 days. The procedure:
Transmission electron microscopy.was employed to directly examine virion morphology within A771726-treated or untreated CMV-infected HUVEC. HUVEC monolayers in 6-well culture plates were inoculated with CMV strain VHL/E (1.0 PFU/cell) in the presence or absence of 200 µM A771726 as described above, and incubated for 4-7 days. Cells were harvested by brief trypsin digestion, washed twice in PBS, then fixed by the.addition of 1 ml 2% phosphate buffered gluteraldehyde and again pelleted by centrifugation. Specimens were post-fixed in 1% phosphate buffered osmium tetroxide (1 hour), then dehydrated in graded ethanol washes. Specimens were embedded in Spur low viscosity embedding media (SEM). Blocks were cured for a minimum of 12 hours at 70°C. Thin sections (approximately 100 nm) were cut from cured blocks using an ultramicrotome (LKB Nova), and mounted on 200 mesh copper grids. Grids were heavy metal-stained using a standard two-step uranyl acetate/lead citrate technique, then examined and photographed at 80 kV with a Zeiss EM900 transmission electron microscope by an individual with no knowledge of the nature of the investigation.

The target in a further assay is T1, HSV DNA polymerase (Human herpesvirus 1, UniProt P04293).
T1 construct: a biochemical assay of HSV DNA polymerase activity in HSV-infected cells; endogenous in cells
The experiment in a line: HSV DNA polymerase biochemical assay. As to conditions: all HSV isolates in VERO cells and HUVEC.

The test system of the next assay is HSV. The assay is described as follows: Transmission electron microscopy of virion morphology in HSV-infected HUVEC. Format: cell-based.
Setting [9] is: run with Parainfluenza Type 3 Virus.
Setting [10] is: run with Respiratory Syncytial Virus A.

T1 sequence (P10226 whole entry): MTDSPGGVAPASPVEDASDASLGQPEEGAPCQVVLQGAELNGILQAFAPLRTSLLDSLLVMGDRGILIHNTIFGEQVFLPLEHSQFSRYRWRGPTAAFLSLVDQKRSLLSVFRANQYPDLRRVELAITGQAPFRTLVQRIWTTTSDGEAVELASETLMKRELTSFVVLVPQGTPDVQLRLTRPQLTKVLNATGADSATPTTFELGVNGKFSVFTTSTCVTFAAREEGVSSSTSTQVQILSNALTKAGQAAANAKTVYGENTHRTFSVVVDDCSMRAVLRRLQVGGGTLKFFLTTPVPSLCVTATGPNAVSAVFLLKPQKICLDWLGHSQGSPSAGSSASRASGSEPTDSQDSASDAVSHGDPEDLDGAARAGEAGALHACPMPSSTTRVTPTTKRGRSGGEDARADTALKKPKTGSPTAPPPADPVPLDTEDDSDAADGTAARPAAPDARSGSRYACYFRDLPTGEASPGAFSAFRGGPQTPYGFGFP
T1 sequence (P04293 whole entry): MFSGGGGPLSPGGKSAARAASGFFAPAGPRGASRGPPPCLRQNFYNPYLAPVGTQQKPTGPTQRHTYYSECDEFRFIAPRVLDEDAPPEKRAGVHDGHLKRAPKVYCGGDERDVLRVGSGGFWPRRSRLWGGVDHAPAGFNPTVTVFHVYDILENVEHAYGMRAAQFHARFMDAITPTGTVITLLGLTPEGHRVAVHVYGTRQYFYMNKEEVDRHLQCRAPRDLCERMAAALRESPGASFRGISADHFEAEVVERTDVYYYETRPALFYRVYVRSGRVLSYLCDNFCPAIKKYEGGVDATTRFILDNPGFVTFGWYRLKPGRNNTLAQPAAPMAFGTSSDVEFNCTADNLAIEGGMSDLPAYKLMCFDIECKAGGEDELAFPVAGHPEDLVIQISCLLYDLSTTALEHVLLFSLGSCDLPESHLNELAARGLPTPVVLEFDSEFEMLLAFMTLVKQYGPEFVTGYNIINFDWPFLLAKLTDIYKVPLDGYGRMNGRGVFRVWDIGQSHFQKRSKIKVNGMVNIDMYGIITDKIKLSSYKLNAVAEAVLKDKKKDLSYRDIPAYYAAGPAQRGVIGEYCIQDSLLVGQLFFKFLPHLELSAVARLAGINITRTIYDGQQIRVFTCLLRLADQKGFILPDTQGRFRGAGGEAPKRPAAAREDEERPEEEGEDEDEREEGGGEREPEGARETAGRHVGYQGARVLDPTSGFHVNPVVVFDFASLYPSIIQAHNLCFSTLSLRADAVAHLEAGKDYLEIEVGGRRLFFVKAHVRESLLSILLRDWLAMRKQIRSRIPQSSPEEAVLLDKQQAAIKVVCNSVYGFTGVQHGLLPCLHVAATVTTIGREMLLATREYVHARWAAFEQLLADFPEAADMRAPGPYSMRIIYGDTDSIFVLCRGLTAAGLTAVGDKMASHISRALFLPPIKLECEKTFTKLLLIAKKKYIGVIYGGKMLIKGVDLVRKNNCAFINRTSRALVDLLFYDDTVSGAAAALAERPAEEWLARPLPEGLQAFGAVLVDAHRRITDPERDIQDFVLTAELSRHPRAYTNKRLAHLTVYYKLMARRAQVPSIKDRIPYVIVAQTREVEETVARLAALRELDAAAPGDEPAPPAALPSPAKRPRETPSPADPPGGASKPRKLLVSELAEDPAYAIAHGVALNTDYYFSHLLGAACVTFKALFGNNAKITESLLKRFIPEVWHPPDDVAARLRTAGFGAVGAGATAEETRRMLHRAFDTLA

With `C/C(O)=C(\C#N)C(=O)Nc1ccc(C(F)(F)F)cc1` [Compound A771726, N-(4-trifluoromethylphenyl)-2-cyano-3-hydroxycrotonamide], the IC50 in assay [1] (run with Influenza A (H1N1)) was 29 µM; in [1] (run with Influenza A (H3N2)), 30 µM; in assay [1] (run with Influenza B), 50 µM; in assay [2], above 660 µM; in [3] (setting [9]) it was 30 µM; in assay [3] (setting [10]), 20 µM. Also, the IC50 came out at 1000 µM in the assay with uninfected cells [4]; 580 µM in [5]; 50 µM in assay [6] (setting [9]); 143 µM in [6] (setting [10]); 500 µM in the assay with uninfected cells [7]. Also, in [8], the “transcription of IE1 or gB genes” value was “no inhibitory effect”. For the same compound, the “virion morphology in the cytoplasm” value in the assay with CMV strain VHL/E is given as “viral particles appeared not to have matured far beyond the 100 nM naked capsid stage”. The “HSV DNA polymerase activity” value at HSV DNA polymerase is recorded as “no detectable inhibitory effect”. Moreover, the “virion morphology, tegument acquisition” value with HSV is “appear not to acquire tegument”.

The values are drawn from patent publication EP1169036B1, “ANTI-VIRAL USES OF LEFLUNOMIDE PRODUCTS” (priority 1998, dated 1999).
